According to patent US9724352B2, “Pyrrolo[2,1-F[1,2,4]triazine compounds, preparation methods and applications thereof” (Shanghai Institute of Materia Medica, Chinese Academy of …, priority 2012, dated 2017):

What was measured:
PI3Kα = PI3Kα (Homo sapiens (Human), UniProt P42336); assay: Inhibition on PI3K kinase activity (Kinase-Glo Plus luminescent assay); type: biochemical; conditions: 2 μM ATP, 1 hour at room temperature
Protocol: The activity of purified kinase was detected with Kinase-Glo® Plus kinase luminescent assay by measuring the amount of the remaining […] in the solution after the kinase reaction was completed. […] After reaction was performed for 1 hour at room temperature, 10 μL of Kinase Glo-Plus mixture was added and incubated for 1 hour to quench the reaction.

[1] = system: PI3K signaling in human rhabdomyosarcoma Rh30 cells; assay: PI3K signaling after IGF-1 stimulation (Western blot), Rh30; type: cell-based; conditions: compound 1 h, IGF-1 10 minutes
Protocol: Rh30 and U87MG cells were seeded in 12-well plates at 2×10^5 cells/well. On the next day, cells were incubated in fresh serum-free culture media subjected to starvation for 24 hours. Cells were then treated with different concentrations of compound I-33 for 1 h. After stimulated with IGF-1 for 10 minutes, the lysed cells were collected, and 4×SDS loading buffer [200 mM Tris.Cl (pH 6.8), 400 mM DTT, 8% SDS (sodium dodecyl sulfate), 0.4% bromophenol blue, 40% glycerol] was added. The cell lysates were boiled for 10 minutes. Aliquot was loaded on polyacrylamide gel and electrophoresis was performed in Tris-glycine electrophoresis buffer (25 mM Tris, 250 mM glycine, 0.1% SDS) at 80-100 V for 2-2.5 hours. The proteins were transformed from gel to nitrocellulose filter membrane by using semidry method. The filter membrane was blocked with blocking solution containing 5% skim milk powder (5% skim milk powder, 20 mM Tris-HCl (pH 7.2-7.4), 150 mM NaCl, 0.1% (v/v) Tween20) in a shaker at room temperature for 2 hours. Then specific primary antibody was added and hybridized at 4° C. overnight. The membrane was washed by washing buffer [20 mM Tris-HCl (pH 7.2-7.4), 150 mM NaCl, 0.1% (v/v) Tween20] for three times at room temperature, 15 minutes each time. […]

[2] = system: human rhabdomyosarcoma Rh30 cells; assay: Proliferation of Rh30 cells (sulforhodamine B); type: cell-based; conditions: Homo sapiens, Rh30, 72 h; read-out: IC50 against proliferation of Rh30 cells
Summary of the method: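 Rh30 cells (3000/well) were treated after adherence with compound at 10, 3, 1, 0.3 or 0.1 μM for 72 h. TCA-fixed cells were stained with sulforhodamine B, dye solubilised in Tris buffer and OD read at 560 nm.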

KYSE410 = assay: Proliferation of human esophagus cancer cells; type: cell-based
From the text: (§1) Compounds BYL719 (shown below), CYH33 (compound I-33) and I-27 were selected to test their activity on the proliferation of 11 species of human esophagus cancer cells.
(§2) The results reported in FIG. 3 were the average GI50 value and SD value of three experiments. The results were arranged according to the GI50 value of CYH33.

KYSE150 = assay: Proliferation of human esophagus cancer cells; type: cell-based
From the text: as §1, §2

KYSE2 = assay: Proliferation of human esophagus cancer cells; type: cell-based
From the text: as §1, §2

KYSE140 = assay: Proliferation of human esophagus cancer cells; type: cell-based
From the text: as §1, §2

COLO680N = assay: Proliferation of human esophagus cancer cells; type: cell-based; conditions: COLO-680N
From the text: as §1, §2

Detroit 562 = assay: Proliferation of human esophagus cancer cells; type: cell-based
From the text: as §1, §2

KYSE70 = assay: Proliferation of human esophagus cancer cells; type: cell-based
From the text: as §1, §2

KYSE30 = assay: Proliferation of human esophagus cancer cells; type: cell-based
From the text: as §1, §2

KYSE450 = assay: Proliferation of human esophagus cancer cells; type: cell-based
From the text: as §1, §2

KYSE510 = assay: Proliferation of human esophagus cancer cells; type: cell-based
From the text: as §1, §2

KYSE180 = assay: Proliferation of human esophagus cancer cells; type: cell-based
From the text: as §1, §2

Sequence of PI3Kα (P42336 whole entry): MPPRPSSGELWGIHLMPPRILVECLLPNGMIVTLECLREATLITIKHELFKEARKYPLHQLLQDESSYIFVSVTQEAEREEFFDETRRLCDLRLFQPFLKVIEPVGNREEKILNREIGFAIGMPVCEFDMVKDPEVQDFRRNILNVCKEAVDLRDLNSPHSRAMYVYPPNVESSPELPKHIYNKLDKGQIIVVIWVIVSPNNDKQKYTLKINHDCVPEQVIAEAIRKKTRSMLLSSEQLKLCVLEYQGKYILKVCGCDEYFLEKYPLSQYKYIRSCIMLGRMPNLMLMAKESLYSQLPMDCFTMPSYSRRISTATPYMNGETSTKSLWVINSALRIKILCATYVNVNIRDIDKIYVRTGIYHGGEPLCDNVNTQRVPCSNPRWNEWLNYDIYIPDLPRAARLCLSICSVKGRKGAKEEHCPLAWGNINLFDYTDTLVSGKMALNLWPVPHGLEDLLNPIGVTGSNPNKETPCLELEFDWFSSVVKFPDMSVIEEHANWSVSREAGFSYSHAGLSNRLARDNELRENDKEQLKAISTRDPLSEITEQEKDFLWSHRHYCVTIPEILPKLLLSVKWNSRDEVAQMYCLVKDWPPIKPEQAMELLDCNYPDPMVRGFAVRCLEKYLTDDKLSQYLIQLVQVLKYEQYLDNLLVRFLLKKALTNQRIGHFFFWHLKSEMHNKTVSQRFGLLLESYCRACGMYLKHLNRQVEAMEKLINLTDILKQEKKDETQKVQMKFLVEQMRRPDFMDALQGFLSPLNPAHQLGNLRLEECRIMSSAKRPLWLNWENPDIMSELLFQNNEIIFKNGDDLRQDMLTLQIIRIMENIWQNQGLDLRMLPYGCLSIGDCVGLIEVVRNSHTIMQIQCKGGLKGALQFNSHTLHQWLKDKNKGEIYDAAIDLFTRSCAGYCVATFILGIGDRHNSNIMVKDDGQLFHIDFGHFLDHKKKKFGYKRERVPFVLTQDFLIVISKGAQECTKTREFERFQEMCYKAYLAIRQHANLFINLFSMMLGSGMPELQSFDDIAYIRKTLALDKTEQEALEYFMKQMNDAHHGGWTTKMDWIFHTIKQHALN
Sequence of PI3Kα (P27986 whole entry partner): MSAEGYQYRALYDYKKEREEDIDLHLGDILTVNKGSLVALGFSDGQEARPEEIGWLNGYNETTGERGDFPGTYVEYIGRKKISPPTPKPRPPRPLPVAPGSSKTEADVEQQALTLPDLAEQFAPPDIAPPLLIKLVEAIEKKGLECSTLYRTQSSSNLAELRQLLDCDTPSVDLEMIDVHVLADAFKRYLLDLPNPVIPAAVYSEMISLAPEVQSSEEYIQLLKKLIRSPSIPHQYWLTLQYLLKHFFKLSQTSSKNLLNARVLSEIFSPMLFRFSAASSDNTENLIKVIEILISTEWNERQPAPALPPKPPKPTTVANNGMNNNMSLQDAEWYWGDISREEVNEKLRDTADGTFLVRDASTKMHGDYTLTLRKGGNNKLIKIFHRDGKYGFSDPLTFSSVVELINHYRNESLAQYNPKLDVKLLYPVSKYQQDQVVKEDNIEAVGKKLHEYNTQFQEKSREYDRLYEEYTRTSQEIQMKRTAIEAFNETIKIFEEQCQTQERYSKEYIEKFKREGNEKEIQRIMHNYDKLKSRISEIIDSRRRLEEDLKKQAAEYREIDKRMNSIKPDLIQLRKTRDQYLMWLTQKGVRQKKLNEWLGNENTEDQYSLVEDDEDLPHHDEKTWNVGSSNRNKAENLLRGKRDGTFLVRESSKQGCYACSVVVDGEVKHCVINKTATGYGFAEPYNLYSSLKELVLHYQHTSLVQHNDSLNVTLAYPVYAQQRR

- IC50 (PI3Kα): 2.84 nM
- IC50 [2]: 2520 nM
- GI50 (KYSE410; KYSE-410, KYSE410, 1st experiment): 146 nM
- GI50 (KYSE410; KYSE-410, KYSE410, 2nd experiment): 50 nM
- GI50 (KYSE410; KYSE-410, KYSE410, 3rd experiment): 88 nM
- GI50 (KYSE410; KYSE-410, KYSE410, mean of three experiments): 95 nM
- GI50 (KYSE150; KYSE-150, KYSE150, 1st experiment): 40 nM
- GI50 (KYSE150; KYSE-150, KYSE150, 2nd experiment): 62 nM
- GI50 (KYSE150; KYSE-150, KYSE150, 3rd experiment): 38 nM
- GI50 (KYSE150; KYSE-150, KYSE150, mean of three experiments): 47 nM
- GI50 (KYSE2; KYSE2, 1st experiment): 24 nM
- GI50 (KYSE2; KYSE2, 2nd experiment): 28 nM
- GI50 (KYSE2; KYSE2, 3rd experiment): 97 nM
- GI50 (KYSE2; KYSE2, mean of three experiments): 50 nM
- GI50 (KYSE140; KYSE-140, KYSE140, 1st experiment): 484 nM
- GI50 (KYSE140; KYSE-140, KYSE140, 2nd experiment): 804 nM
- GI50 (KYSE140; KYSE-140, KYSE140, 3rd experiment): 492 nM
- GI50 (KYSE140; KYSE-140, KYSE140, mean of three experiments): 593 nM
- GI50 (COLO680N; 1st experiment): 743 nM
- GI50 (COLO680N; 2nd experiment): 530 nM
- GI50 (COLO680N; 3rd experiment): 701 nM
- GI50 (COLO680N; mean of three experiments): 658 nM
- GI50 (Detroit 562; Detroit 562, Detroit 562, 1st experiment): 718 nM
- GI50 (Detroit 562; Detroit 562, Detroit 562, 2nd experiment): 707 nM
- GI50 (Detroit 562; Detroit 562, Detroit 562, 3rd experiment): 769 nM
- GI50 (Detroit 562; Detroit 562, Detroit 562, mean of three experiments): 731 nM
- GI50 (KYSE70; KYSE-70, KYSE70, 1st experiment): 33 nM
- GI50 (KYSE70; KYSE-70, KYSE70, 2nd experiment): 27 nM
- GI50 (KYSE70; KYSE-70, KYSE70, 3rd experiment): 29 nM
- GI50 (KYSE70; KYSE-70, KYSE70, mean of three experiments): 30 nM
- GI50 (KYSE30; KYSE-30, KYSE30, 1st experiment): 2640 nM
- GI50 (KYSE30; KYSE-30, KYSE30, 2nd experiment): 566 nM
- GI50 (KYSE30; KYSE-30, KYSE30, 3rd experiment): 531 nM
- GI50 (KYSE30; KYSE-30, KYSE30, mean of three experiments): 1250 nM
- GI50 (KYSE450; KYSE-450, KYSE450, 1st experiment): 1380 nM
- GI50 (KYSE450; KYSE-450, KYSE450, 2nd experiment): 803 nM
- GI50 (KYSE450; KYSE-450, KYSE450, 3rd experiment): 938 nM
- GI50 (KYSE450; KYSE-450, KYSE450, mean of three experiments): 1040 nM
- GI50 (KYSE510; KYSE-510, KYSE510, 1st experiment): 55 nM
- GI50 (KYSE510; KYSE-510, KYSE510, 2nd experiment): 6 nM
- GI50 (KYSE510; KYSE-510, KYSE510, 3rd experiment): 38 nM
- GI50 (KYSE510; KYSE-510, KYSE510, mean of three experiments): 33 nM
- GI50 (KYSE180; KYSE-180, KYSE180, 1st experiment): 1 nM
- GI50 (KYSE180; KYSE-180, KYSE180, 2nd experiment): 11 nM
- GI50 (KYSE180; KYSE-180, KYSE180, 3rd experiment): 16 nM
- GI50 (KYSE180; KYSE-180, KYSE180, mean of three experiments): 9 nM
SMILES: COC(=O)Nc1cc(C(F)(F)F)c(-c2nc(N3CCOCC3)c3cc(CN4CCN(S(C)(=O)=O)CC4)cn3n2)cn1 [Compound I-33, Methyl (5-(6-((4-(methylsulfonyl)piperazin-1-yl)methyl)-4-morpholinopyrrolo[2,1-f][1,2,4]triazin-2-yl)-4-(trifluoromethyl)pyridin-2-yl)carbamate]
- transduction of PI3K signaling [1]: significantly inhibited
